The target in series [1] is human PCSK9 (Homo sapiens, UniProt Q8NBP7). The experiment in a line: PCSK9 ligand binding TR-FRET assay (interference with binding of human PCSK9 to human LDLR). As to conditions: for Max % inhibition: PCSK9 FRET assay, efficacy (Amax), 100% = 1 uM unlabeled human PCSK9, 0% = DMSO; for IC50: TR-FRET, human PCSK9 Alexa Fluor 647 / human LDLR extracellular domain-Europium Kryptate, read-out: PCSK9 FRET Assay IC50. Put shortly: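 Threefold compound dilutions were pre-incubated 30 min with PCSK9, after which 4 nM Europium Kryptate-tagged human LDLR ectodomain was added for a further 2 h.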
human PCSK9, sequence (Q8NBP7 153-692): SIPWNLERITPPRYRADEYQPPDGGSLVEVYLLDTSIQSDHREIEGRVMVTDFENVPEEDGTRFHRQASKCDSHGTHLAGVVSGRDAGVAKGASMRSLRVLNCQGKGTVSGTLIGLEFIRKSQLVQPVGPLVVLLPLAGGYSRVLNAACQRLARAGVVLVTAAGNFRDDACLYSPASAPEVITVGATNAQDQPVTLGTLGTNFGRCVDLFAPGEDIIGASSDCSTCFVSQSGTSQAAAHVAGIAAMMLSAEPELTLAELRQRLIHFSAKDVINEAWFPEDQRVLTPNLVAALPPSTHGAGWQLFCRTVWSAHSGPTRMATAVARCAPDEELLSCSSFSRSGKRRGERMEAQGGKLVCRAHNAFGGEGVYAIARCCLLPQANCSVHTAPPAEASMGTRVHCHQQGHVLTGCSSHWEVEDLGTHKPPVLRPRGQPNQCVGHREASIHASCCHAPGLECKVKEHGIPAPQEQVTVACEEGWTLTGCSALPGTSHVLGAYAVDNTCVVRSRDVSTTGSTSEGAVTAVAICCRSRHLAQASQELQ
human PCSK9, sequence (Q8NBP7 31-152 partner limits assumed): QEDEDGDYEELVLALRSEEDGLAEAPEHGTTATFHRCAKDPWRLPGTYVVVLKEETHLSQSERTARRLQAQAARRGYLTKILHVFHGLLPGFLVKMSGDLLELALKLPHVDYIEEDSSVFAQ
Background: In TR-FRET formats the signal depends on donor and acceptor labels being close together.

The conditions of series [2]: amide bond, 18-membered ring, HATU/HOAt/2,6-lutidine, DCM, 45.0 °C.
For series [3] the following is noted: amide bond, 18-membered ring, HATU/HOAt/2,6-lutidine.

Where two headings read alike, the source gives them in different places.

By IC50 is commonly meant the concentration at which inhibition is half-maximal.

With `CCOC[C@@H]1NC(=O)[C@H](C)N(Cc2ccc(Cl)cc2Oc2ccc(-c3cnc(CN(C)C)n3C)cc2)C(=O)C[C@@H](C)C(=O)N(C)[C@@H](C)CNC(=O)C[C@H](Cc2ccc(Cl)cc2)N(C)C1=O.O=CO` [Compound 53, (2S,5S,8S,13S,16R)-1-(4-chloro-2-(4-(2-((dimethylamino)methyl)-1-methyl-1H-imidazol-5-yl)phenoxy)benzyl)-8-(4-chlorobenzyl)-5-(ethoxymethyl)-2,7,13,14,16-pentamethyl-1,4,7,11,14-pentaaza cyclooctadecane-3,6,10,15,18-pentaone formate], in series [1], the Max % inhibition was determined as 92.32% and the IC50 was determined as 0.0211 µM. This compound also displayed a ring closure, isolated yield in series [2] (from (3S,6S,9S,14S,17R)-1-(4-chloro-2-(4-(2-((dimethylamino)methyl)-1-methyl-1H-imidazol-5-yl)phenoxy)phenyl)-9-(4-chlorobenzyl)-6-(ethoxymethyl)-3,8,14,15,17-pentamethyl-4,7,11,16-tetraoxo-2,5,8,12,15-pentaazanonadecan-19-oic acid hydrochloride, 1.27 mM) of 9%.
With `C[C@H]1CNC(=O)C[C@H](Cc2ccc(Cl)cc2)N(C)C(=O)[C@H](CC(=O)OC(C)(C)C)NC(=O)[C@H](C)N(Cc2ccc(Cl)cc2Oc2ccc(-c3cnc(CN(C)C)n3C)cc2)C(=O)C[C@@H](Cc2ccccc2)C(=O)N1C` [Compound 185, tert-butyl 2-((2S,5S,8S,13S,16R)-16-benzyl-1-(4-chloro-2-(4-(2-((dimethylamino)methyl)-1-methyl-1H-imidazol-5-yl)phenoxy)benzyl)-8-(4-chlorobenzyl)-2,7,13,14-tetramethyl-3,6,10,15,18-pentaoxo-1,4,7,11,14-pentaazacyclooctadecan-5-yl)acetate], in series [1], the Max % inhibition stood at 96.86% and the IC50 is 0.0115 µM. In series [2] (from (3S,6S,9S,14S,17R)-17-benzyl-6-(2-(tert-butoxy)-2-oxoethyl)-1-(4-chloro-2-(4-(2-((dimethyl amino)methyl)-1-methyl-1H-imidazol-5-yl)phenoxy)phenyl)-9-(4-chlorobenzyl)-3,8,14,15-tetramethyl-4,7,11,16-tetraoxo-2,5,8,12,15-pentaazanonadecan-19-oic acid, 1.85 mM), this compound came in with a ring closure, isolated yield of 46%.
For `COC[C@@H]1NC(=O)[C@H](C)N(Cc2ccc(Cl)cc2Oc2ccc(-c3cnc(CN(C)C)n3C)cc2)C(=O)C[C@@H](Cc2cccc(C)n2)C(=O)N(C)[C@H]2CCCC[C@@H]2NC(=O)C[C@H](Cc2ccc(Cl)cc2)N(C)C1=O` [Compound 265, (4S,7S,10S,14R,16aS,20aS)-11-(4-chloro-2-(4-(2-((dimethylamino)methyl)-1-methyl-1H-imidazol-5-yl)phenoxy)benzyl)-4-(4-chlorobenzyl)-7-(methoxymethyl)-5,10,16-trimethyl-14-((6-methylpyridin-2-yl)methyl)hexadecahydrobenzo-[l][1,4,7,11,14]pentaazacyclooctadecine-2,6,9,12,15(3H)-pentaone], in series [1], the Max % inhibition was found to be 104.88% and the IC50 was found to be 0.312 µM. In series [2] (from (R)-4-(((1S,2S)-2-((S)-3-((S)-2-((S)-2-((4-chloro-2-(4-(2-((dimethylamino)methyl)-1-methyl-1H-imidazol-5-yl)phenoxy)benzyl)amino)propanamido)-3-methoxy-N-methylpropanamido)-4-(4-chlorophenyl)butanamido)cyclohexyl)(methyl)amino)-3-((6-methylpyridin-2-yl)methyl)-4-oxobutanoic acid), this compound had a ring closure, isolated yield of 31.1%.
Consider “(2S,5S,8S,13S,16R)-16-benzyl-8-(4-chlorobenzyl)-1-(4-ethyl-2-(4-(1-methyl-2-(pyrrolidin-1-ylmethyl)-1H-imidazol-5-yl)phenoxy)benzyl)-5-(methoxymethyl)-2,7,13,14-tetramethyl-1,4,7,11,14-pentaazacyclooctadecane-3,6,10,15,18-pentaone hydrochloride”, for which, in series [3] (DCM, 0.777 mM, 40.0 °C), the ring closure, yield after HPLC was found to be 47%.
Turning to “(4S,7S,10S,14R,16aS,20aS)-14-Benzyl-11-(4-chloro-2-(4-(2-((dimethylamino)methyl)-1-methyl-1H-imidazol-5-yl)phenoxy)benzyl)-4-(4-chlorobenzyl)-7-(methoxymethyl)-5,16-dimethyl-10-(3-(3,3,4,4-tetrafluoropyrrolidin-1-yl)propyl)hexadecahydrobenzo[l][1,4,7,11,14]pentaazacyclooctadecine-2,6,9,12,15(3H)-pentaone”, the ring closure, yield after HPLC in series [3] (DCM, 0.524 mM, 39.0 °C) is 17%.
As to “(4S,7S,10S,16aS,20aS)-4-(4-chlorobenzyl)-11-(2-(difluoromethoxy)-6-(4-(2-((dimethylamino)methyl)-1-methyl-1H-imidazol-5-yl)phenoxy)benzyl)-7-(methoxymethyl)-5,10,16-trimethylhexadecahydro-benzo[l][1,4,7,11,14]pentaazacyclooctadecine-2,6,9,12,15(3H)-pentaone”, the ring closure, yield after HPLC in series [3] (DCM/NMP 10:1, 0.91 mM, 40.0 °C) was found to be 22%.

Values taken from patent publication US20230089867A1, “CYCLIC PENTAMER COMPOUNDS AS PROPROTEIN CONVERTASE SUBTILISIN/KEXIN TYPE 9 (PCSK9) INHIBITORS FOR THE TREATMENT OF METABOLIC DISORDER” (Novartis AG, priority 2018, published 2023).
